Results taken from ChEMBL document CHEMBL1201862, “PubChem BioAssay data set” (2004).
Each block holds one compound with its values, some of them ahead of it. Calls of active or inactive are those of the source.

Key:
Protein skinhead-1 = biological target: T1, Protein skinhead-1 (Caenorhabditis elegans, UniProt P34707); type: functional
T1 sequence (P34707 whole entry): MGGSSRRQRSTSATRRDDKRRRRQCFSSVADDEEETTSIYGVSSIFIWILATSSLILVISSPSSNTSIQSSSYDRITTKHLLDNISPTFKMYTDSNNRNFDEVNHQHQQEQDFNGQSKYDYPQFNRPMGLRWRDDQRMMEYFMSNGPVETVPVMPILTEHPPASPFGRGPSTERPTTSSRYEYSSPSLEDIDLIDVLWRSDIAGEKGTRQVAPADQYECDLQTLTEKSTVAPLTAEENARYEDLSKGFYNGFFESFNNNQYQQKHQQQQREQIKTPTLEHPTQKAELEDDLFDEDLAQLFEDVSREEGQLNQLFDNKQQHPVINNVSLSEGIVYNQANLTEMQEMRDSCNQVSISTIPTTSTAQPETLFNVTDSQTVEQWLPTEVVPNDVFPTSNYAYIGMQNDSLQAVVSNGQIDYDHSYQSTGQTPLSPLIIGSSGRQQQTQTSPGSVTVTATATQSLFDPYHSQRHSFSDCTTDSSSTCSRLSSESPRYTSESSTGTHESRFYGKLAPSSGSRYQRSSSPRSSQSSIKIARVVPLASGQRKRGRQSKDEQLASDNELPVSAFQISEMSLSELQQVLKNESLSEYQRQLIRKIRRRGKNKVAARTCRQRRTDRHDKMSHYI

[1] = biological target: T2, Calpain-2 catalytic subunit (Sus scrofa, UniProt P43367); test: m-calpain protease blockers, concentration series – biochemical, fluorogenic peptide substrate, dose response (AID 1420); type: functional
T2 sequence (P43367 whole entry): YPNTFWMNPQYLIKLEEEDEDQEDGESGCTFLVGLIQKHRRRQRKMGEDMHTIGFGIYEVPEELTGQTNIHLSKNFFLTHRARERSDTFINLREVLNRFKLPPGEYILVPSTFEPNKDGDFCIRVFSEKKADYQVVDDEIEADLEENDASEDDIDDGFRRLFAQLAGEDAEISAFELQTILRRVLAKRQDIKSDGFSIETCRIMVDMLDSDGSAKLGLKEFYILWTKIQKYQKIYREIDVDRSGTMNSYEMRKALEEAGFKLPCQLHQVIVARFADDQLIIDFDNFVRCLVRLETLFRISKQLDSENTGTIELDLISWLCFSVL

[2] = biological target: T3, Heat shock factor protein 1 (Mus musculus, UniProt P38532); test: enhancement of HSF1-driven luciferase signal – cell-based, NIH3T3, luminescence, dose retest, confirmation (AID 435004); type: functional;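 also: stress induced by proteasome inhibitor MG132 added 30 min after compound; luciferase reporter driven by HSF1 response element in NIH3T3 cells; actives raise luminescence as potentiators of the MG132 stress response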
T3 sequence (P38532 whole entry): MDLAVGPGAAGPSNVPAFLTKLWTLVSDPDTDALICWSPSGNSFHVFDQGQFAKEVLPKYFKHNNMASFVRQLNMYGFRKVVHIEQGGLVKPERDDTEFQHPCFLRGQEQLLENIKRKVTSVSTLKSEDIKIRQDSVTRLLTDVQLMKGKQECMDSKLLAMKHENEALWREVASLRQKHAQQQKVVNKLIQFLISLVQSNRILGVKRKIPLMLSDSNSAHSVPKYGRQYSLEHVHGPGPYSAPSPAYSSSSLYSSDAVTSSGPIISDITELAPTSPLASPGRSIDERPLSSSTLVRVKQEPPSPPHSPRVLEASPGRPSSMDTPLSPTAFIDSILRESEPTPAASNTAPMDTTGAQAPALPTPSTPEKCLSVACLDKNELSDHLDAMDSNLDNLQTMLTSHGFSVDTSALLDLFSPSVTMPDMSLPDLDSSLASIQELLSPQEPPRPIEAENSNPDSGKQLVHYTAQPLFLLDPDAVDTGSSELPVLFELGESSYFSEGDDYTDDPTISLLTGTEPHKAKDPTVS

[3] = Luminescence Cell-Based Dose Response HTS to Identify Activators of Luciferase Translation or Activity in H4 […] Cells. [Related pubchem assays: 1829 (Project Summary), 1814 (Primary HTS)]; type: functional
[4] = biological target: T4, Corticotropin-releasing factor receptor 2/Corticotropin-releasing factor-binding protein (Homo sapiens, UniProt P24387+Q13324); test: Dose Response confirmation of uHTS hits for small molecule antagonists of the CRF-binding protein and CRF-R2 receptor complex.; type: functional; details: read-out: IC50_Mean
T4 sequence (Q13324 whole entry): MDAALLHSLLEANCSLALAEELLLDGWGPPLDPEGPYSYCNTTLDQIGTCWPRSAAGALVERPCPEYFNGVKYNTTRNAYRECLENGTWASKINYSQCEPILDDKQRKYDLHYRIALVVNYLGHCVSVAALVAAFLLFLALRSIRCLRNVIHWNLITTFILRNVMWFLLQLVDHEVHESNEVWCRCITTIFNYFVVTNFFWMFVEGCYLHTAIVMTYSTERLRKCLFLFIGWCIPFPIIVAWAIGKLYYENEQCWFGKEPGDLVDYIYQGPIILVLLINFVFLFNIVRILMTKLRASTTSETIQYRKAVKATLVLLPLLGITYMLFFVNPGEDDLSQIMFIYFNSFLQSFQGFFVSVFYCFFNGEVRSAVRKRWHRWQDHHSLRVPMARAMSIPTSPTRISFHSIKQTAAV
T4 sequence (P24387 whole entry): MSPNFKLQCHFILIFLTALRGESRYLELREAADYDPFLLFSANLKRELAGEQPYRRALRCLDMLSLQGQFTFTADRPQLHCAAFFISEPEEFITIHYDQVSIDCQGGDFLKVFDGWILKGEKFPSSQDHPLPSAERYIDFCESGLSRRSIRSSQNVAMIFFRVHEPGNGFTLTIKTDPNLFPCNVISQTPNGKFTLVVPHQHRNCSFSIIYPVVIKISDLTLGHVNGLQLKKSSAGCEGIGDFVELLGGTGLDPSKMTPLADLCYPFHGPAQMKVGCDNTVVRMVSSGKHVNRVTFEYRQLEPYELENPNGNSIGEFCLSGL

[5] = biological target: T4, Corticotropin-releasing factor receptor 2/Corticotropin-releasing factor-binding protein; test: activators of CRF receptor 2 with binding protein – uHTS hits, confirmation (AID 602473); type: functional; details: read-out: EC50_Mean
Fatty acid synthase [6] = biological target: T5, Fatty acid synthase (Homo sapiens, UniProt P49327); test: inhibition of human FAS-TE enzyme activity – biochemical, endpoint fluorescence intensity, uHTS hits, dose response (AID 624327); type: functional;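 also: fluorescence from hydrolysis of an O-methyl fluorescein acyl ester substrate by the enzyme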
Fatty acid synthase [7] = biological target: T5, Fatty acid synthase; test: inhibition of human FAS-TE enzyme activity – biochemical, kinetic fluorescence intensity, dose response (AID 624326); type: functional;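 also: rate of fluorescence rise from hydrolysis of a fluorogenic O-methyl fluorescein ester substrate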
Large T antigen = Large T antigen (Simian virus 40, UniProt P03070); type: functional, Betapolyomavirus macacae;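 also: Confirmatory-stage PubChem screen for compounds that inhibit SV40 T antigen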
[8] = biological target: T6, Rac GTPase-activating protein 1 (Homo sapiens, UniProt Q9H0H5); test: blockers of MgcRacGAP-driven Rac1 GTP hydrolysis – biochemical, ADP Hunter fluorescence, primary and confirmatory, confirmation (AID 624330); type: functional
T6 sequence (Q9H0H5 whole entry): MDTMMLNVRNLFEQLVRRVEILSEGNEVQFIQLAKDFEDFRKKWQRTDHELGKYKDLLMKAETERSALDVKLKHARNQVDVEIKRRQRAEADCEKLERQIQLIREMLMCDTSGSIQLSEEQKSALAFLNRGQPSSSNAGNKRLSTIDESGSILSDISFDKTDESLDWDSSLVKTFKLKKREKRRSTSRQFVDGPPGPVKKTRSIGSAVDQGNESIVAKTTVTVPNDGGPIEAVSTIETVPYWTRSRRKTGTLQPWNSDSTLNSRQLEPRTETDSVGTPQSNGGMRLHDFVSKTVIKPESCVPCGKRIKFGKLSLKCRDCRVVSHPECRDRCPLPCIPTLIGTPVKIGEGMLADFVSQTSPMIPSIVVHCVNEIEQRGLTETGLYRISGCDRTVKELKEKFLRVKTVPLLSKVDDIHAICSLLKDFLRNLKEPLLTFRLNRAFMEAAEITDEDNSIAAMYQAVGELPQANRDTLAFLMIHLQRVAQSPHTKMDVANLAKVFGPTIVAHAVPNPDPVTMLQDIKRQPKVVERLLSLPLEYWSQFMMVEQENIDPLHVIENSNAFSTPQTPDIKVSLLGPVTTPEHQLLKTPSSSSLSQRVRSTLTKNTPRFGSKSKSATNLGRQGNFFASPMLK

[9] = Luminescence Cell-Based Dose Retest to Confirm Inhibitors of Cancer Stem Cells. [Related pubchem assays (depositor defined):AID2717, AID2721]; type: functional; details: Homo sapiens
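For AC50 in this document: cells exposed to compound for roughly 70 hours or longer before luminescence read.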

T5 sequence (P49327 whole entry): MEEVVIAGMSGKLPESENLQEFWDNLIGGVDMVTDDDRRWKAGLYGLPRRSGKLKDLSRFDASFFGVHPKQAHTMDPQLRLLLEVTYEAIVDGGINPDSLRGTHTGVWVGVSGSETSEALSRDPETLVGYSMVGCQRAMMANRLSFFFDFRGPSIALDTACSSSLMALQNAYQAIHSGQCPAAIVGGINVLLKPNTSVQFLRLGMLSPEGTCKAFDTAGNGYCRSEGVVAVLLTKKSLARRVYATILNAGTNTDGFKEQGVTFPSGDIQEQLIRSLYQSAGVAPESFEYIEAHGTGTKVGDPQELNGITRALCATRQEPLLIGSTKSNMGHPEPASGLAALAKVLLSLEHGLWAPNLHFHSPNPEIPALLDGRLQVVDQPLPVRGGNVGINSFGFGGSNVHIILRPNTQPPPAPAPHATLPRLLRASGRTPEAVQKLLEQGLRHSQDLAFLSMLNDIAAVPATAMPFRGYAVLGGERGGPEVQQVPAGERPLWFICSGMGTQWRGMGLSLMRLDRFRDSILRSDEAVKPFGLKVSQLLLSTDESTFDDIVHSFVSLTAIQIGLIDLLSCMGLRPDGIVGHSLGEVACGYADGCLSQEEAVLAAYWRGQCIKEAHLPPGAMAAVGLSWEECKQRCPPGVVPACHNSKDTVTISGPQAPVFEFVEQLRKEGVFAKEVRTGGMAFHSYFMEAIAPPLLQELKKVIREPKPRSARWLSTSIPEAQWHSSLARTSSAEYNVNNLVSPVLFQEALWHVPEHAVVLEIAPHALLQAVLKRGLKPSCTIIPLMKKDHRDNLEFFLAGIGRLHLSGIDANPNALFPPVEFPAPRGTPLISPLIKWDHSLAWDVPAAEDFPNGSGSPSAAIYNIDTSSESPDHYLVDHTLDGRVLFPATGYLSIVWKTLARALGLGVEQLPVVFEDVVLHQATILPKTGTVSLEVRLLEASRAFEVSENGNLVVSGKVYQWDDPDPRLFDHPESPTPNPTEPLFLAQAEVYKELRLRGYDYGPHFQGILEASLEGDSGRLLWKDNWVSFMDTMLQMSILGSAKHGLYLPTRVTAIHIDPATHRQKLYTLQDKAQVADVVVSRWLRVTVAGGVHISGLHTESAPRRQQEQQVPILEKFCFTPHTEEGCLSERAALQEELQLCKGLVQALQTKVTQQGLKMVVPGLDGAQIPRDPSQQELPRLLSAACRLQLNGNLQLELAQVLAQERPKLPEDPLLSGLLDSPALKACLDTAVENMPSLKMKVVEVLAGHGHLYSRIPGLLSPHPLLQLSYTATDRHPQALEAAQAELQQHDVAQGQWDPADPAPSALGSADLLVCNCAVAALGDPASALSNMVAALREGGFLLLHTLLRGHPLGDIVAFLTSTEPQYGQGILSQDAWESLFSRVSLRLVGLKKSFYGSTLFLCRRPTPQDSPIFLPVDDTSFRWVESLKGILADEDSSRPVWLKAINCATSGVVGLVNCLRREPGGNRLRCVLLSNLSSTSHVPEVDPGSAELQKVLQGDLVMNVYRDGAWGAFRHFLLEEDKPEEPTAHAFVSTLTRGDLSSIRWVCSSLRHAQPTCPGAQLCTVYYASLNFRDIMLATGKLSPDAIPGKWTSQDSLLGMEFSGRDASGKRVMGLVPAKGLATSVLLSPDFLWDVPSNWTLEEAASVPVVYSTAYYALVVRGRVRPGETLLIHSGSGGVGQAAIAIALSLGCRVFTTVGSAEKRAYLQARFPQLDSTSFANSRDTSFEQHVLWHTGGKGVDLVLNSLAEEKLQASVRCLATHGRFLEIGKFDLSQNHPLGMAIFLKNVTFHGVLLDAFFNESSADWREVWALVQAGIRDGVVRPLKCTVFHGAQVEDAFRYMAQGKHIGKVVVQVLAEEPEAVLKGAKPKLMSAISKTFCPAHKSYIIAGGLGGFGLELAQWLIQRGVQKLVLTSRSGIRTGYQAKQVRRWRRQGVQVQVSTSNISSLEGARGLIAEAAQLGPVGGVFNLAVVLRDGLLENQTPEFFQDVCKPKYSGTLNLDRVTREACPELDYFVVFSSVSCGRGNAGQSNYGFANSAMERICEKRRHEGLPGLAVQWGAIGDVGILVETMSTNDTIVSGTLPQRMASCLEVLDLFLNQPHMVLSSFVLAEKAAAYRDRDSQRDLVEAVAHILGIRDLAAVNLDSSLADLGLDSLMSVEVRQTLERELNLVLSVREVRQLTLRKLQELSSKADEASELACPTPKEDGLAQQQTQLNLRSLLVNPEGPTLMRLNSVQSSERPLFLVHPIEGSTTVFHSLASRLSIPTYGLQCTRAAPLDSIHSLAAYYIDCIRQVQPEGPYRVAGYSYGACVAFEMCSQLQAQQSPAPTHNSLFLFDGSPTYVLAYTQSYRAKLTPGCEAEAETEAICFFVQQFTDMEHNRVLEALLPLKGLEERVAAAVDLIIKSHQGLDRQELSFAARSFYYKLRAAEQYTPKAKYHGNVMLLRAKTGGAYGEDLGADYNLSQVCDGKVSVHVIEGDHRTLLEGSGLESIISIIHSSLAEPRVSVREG
Sequence of Large T antigen (P03070 whole entry): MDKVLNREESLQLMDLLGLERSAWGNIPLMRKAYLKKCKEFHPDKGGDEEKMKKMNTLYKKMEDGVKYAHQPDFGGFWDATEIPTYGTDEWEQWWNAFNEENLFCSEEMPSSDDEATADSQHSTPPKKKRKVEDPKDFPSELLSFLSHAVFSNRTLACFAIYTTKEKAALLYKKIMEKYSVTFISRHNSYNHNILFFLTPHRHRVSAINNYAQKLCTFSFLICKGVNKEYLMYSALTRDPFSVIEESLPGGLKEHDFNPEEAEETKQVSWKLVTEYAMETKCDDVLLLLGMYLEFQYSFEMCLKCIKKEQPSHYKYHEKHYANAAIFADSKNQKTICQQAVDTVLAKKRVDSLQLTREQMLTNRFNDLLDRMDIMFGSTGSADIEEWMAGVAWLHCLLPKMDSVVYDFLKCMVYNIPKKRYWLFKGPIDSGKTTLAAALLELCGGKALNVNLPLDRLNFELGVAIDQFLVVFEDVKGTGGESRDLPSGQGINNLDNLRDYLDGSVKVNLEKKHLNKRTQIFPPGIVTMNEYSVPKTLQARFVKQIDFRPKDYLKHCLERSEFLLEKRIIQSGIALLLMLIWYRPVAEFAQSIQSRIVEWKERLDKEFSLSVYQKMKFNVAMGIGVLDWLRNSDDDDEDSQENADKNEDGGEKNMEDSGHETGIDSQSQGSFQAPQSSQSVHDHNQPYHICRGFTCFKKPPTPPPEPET

Structure (SMILES): C=CCN1C(=O)C2(C(C(=O)OCC)=C(N)Oc3ccccc32)C2=C1CCCC2=O (configuration not stated)
IC50 (Protein skinhead-1): > 100 µM (inactive)

Structure (SMILES): O=C(COC(=O)c1cccnc1O)NCCc1ccc(Cl)cc1Cl
EC50 [3]: 0.367 µM (active)

Structure (SMILES): COc1ccc(-c2[nH]ncc2CN2CCN(C3CCCCC3)C(=O)C2)cc1F
EC50 [2]: 216 µM (active)

Structure (SMILES): COc1ccc(CN(C)Cc2nc3scc(-c4ccccc4)c3c(=O)[nH]2)cc1OC
IC50 [4]: > 47.1 µM (inactive)
EC50 [5]: > 53 µM (inactive)

Structure (SMILES): Cc1ccc(CSc2nnc(-c3ccco3)o2)cc1
IC50 (Protein skinhead-1): 22 µM (active)

Structure (SMILES): COCCNC(=S)N1CCc2cc(OC)c(OC)cc2C1COc1ccc(C(C)C)cc1 (configuration not stated)
IC50 [4]: > 47.1 µM (inactive)
EC50 [5]: > 53 µM (inactive)

Structure (SMILES): COc1ccc2cc3cc(C(=O)N4CCCC(C)C4)oc3nc2c1 (configuration not stated)
IC50 (Fatty acid synthase [6]): 6.22 µM (active)
IC50 (Fatty acid synthase [7]): 5.48 µM (active)

Structure (SMILES): Fc1ccc(Cn2nnnc2C(c2cccs2)N2CCCCCC2)cc1 (configuration not stated)
IC50 [1]: 7.88 µM (not active)

Structure (SMILES): NC1=NC(=O)S/C1=C\c1ccc(O)cc1
IC50 (Large T antigen): 4.59 µM (active)
IC50 [4]: > 47.1 µM (inactive)
EC50 [5]: > 53 µM (inactive)
IC50 [8]: 15.7 µM (active)

Structure (SMILES): [O-][S+](Cc1cc(Sc2ccccc2)nc(-c2ccccc2)n1)c1ccccc1 (configuration not stated)
EC50 [2]: > 260 µM (inactive)

Structure (SMILES): O=C(Nc1ccc(Nc2ccccc2)cc1)c1cc([N+](=O)[O-])ccc1Cl
AC50 [9]: 9.07 µM (active)
EC50 [2]: 5.63 µM (active)
IC50 (Fatty acid synthase [6]): 11.1 µM (active)
IC50 (Fatty acid synthase [7]): 14 µM (active)

Structure (SMILES): O=C(c1cc2cc([N+](=O)[O-])ccc2s1)N1CCCCC1
IC50 [1]: 43.1 µM (not active)

Structure (SMILES): O=C(Oc1ccc(Cl)c2cccnc12)C12CC3CC(CC(C3)C1)C2
IC50 [1]: 11.9 µM (not active)

Next, values leading:

IC50 (Protein skinhead-1): > 100 µM (inactive)
Structure (SMILES): CC(=O)Nc1cccc(OCC(=O)NS(=O)(=O)c2ccc(Cl)cc2)c1

IC50 [1]: 7.01 µM (not active)
Structure (SMILES): O=C(CCC1CCCCC1)Nc1ccc(C(=O)c2ccncc2)cc1

EC50 [2]: > 260 µM (inactive)
Structure (SMILES): COC(=O)[C@H](CCSC)NC(=O)Nc1cccc(C)c1C

IC50 (Fatty acid synthase [6]): 15.8 µM (active)
IC50 (Fatty acid synthase [7]): 20.4 µM (inactive)
Structure (SMILES): O=C(Cn1cc([N+](=O)[O-])ccc1=O)NCc1ccc(Cl)cc1Cl

IC50 [1]: 15.5 µM (not active)
Structure (SMILES): COc1ccc(OC)c(NC(=O)COC(=O)CSc2ccc(Cl)cc2)c1

IC50 [4]: > 47.1 µM (inactive)
EC50 [5]: > 53 µM (inactive)
Structure (SMILES): O=C(c1ccc(F)cc1Cl)N(Cc1ccco1)C1CCS(=O)(=O)C1 (configuration not stated)

IC50 [4]: > 47.1 µM (inactive)
EC50 [5]: > 53 µM (inactive)
Structure (SMILES): O=C(NC(=S)NCC1CCCO1)C(c1ccccc1)c1ccccc1 (configuration not stated)
